Consider four molecules from US6379670B1, “Methods for treatment of multiple sclerosis using peptide analogs of human myelin basic protein” (Neurocrine Biosciences, Inc., priority 1994, dated 2002).

Non-standard residues stand in square brackets, D forms with d. No end group written: not given here.

The test system of series [1] is EAE in Lewis rats. Kind of series: Treatment of MBP(83-99)-induced EAE in Lewis rats with peptide analogs (subcutaneous). The series is classed as in vivo, Lewis rat. Particulars: 13.2 mg/kg subcutaneously on day 9, FIGS. 10 and 11. As for the experimental part: In this system, experimental allergic encephalomyelitis (EAE) was induced in twelve female Lewis rats by injection of MBP(83-99) peptide in complete Freund's adjuvant (CFA) at the base of the tail. Nine days later, rats were divided into two groups of six animals and subcutaneously injected with 13.2 mg/kg of either peptide analog or a control peptide, sperm whale myoglobin (SWM) (110-121). Animals were monitored daily for disease symptoms and scored in a blinded fashion on a nonlinear ascending scale of 0-4 with increments denoting increasing paralysis. Each individual score was averaged with group cohorts to obtain the mean clinical score.

For series [2], the system named is EAE in SJL/J mice. Kind of series: Inhibition of chronic relapsing EAE in SJL/J mice. The series is classed as in vivo, mouse. To be noted: 20 mg/kg intraperitoneally weekly for 4 weeks. As for the experimental part:
The SJL/J (H-2^5) mouse develops a chronic relapsing form of EAE in response to immunization with MBP(83-99) peptide in the presence of pertussis vaccine. The ability of the peptide analogs NBI-5719 (SEQ ID NO:4) and NBI-5765 (SEQ ID NO:6) to inhibit the disease was evaluated (see FIG. 12).
Groups of 10 animals were injected intraperitoneally weekly for 4 weeks with 20 mg/kg of either a control peptide or the peptide analog. The animals were then monitored for disease over the next 2-3 months. […] Beginning around day 70, a relapse occurred reaching a mean clinical score of about 1. […] This is particularly striking since the animals had not been exposed to the APL for approximately one month.

The subject of series [3] is Dr2b restricted human T cell clones reactive to MBP. Kind of series: Human T cell proliferation, Dr2b restricted clones. The series is classed as cell-based. To be noted: Dr2b restricted clone 5F6, 50 μM, FIG. 19. As for the experimental part: (§1) Human T cells reactive to MBP (83-99) may alternatively be used to measure the ability of the peptide analog to inhibit proliferation of T cells induced by native MBP (83-99) peptide. MBP-specific T cells may be obtained as previously described by Martin et al., J. Immunol. 148:1359-1366, 1992. Briefly, T cell lines are established by culture of human T cells with irradiated, DR-matched peripheral blood cells in MEM supplemented with 2 mM L-glutamine, 50 μg/ml gentamicin, penicillin and streptomycin, 100 U/ml rIL-2, and 10% human AB negative serum. Proliferation of these T cell lines is stimulated by culturing a clone with varying concentration (1.1-30 μM) of native […] peptide, 50 μM of the peptide analog or SWM peptide, in the presence of irradiated, DR matched peripheral blood cells, following incubation for approximately 60 hours, the cells are pulsed with ^3H-thymidine for 12 hours and harvested. The amount of incorporated ^3H-thymidine is measured.
The ability of the peptide analogs NBI-5719, 5748, 5765, 5788 and 5789 (SEQ ID NOs: 4-8 respectively) to affect human T cell proliferation was assessed. A constant amount of peptide analog or the control peptide SWM (50 μM) was cultured with varying concentrations of native MBP(83-99) peptide (1.1-30 μM) in the presence of irradiated, DR matched peripheral blood cells and T cell clones derived from various MS patients. Human T cells (1×10^6) were cultured with DR matched, irradiated peripheral blood cells (PBL, 5×10^6) in medium containing IMDM supplemented with 3 μM MBP83-99, 2 mM L-glutamine, 50 μg/ml gentamicin penicillin/streptomycin, 100 U/ml r1L-2 and 10% human AB-negative serum. Cells were cultured for approximately 60 hours, pulsed with tritiated thymidine for 12 hours, and harvested. The amount of tritiated thymidine incorporated was measured, and the data represented as the mean plus or minus the standard error of the mean of replicate samples.
The ability of the peptide analog to inhibit the proliferative response of MBP-reactive T cells isolated from Dr2b (DrB1* 1501) individuals was determined. A constant amount of NBI-5788 (50 μM) was cultured with varying concentrations of native peptide (1.1-30 μM) in the presence of irradiated, DR matched peripheral blood cells and T cell clones derived from various MS patients.

The subject of series [4] is Dr4 Dw4 restricted human T cell clone MS-1. Kind of series: Human T cell proliferation, Dr4 Dw4 restricted clone MS-1. The series is classed as cell-based. To be noted: FIG. 20. As to the method: as §1
The ability of the peptide analogs NBI-5719, 5748, 5765, 5788 and 5789 (SEQ ID NOs: 4-8 respectively) to affect human T cell proliferation was assessed. […] The amount of tritiated thymidine incorporated was measured, and the data represented as the mean plus or minus the standard error of the mean of replicate samples.

Series [5] deals with Dr2b-restricted T cell clone 5F6. Kind of series: Cytokine production (TNF-α, IFN-γ) by T cell clone 5F6, EIA. It counts as cell-based, human. To be noted: even at concentrations of 50 μM (data not shown). As for the experimental part: As discussed in detail below, the production of cytokines may also be assessed. In particular, TNF-α and IFN-γ production are especially interesting. These pro-inflammatory cytokines are thought to play a role in the pathogenesis of the disease. Briefly, T cell clone is incubated in the presence of stimulating MBP peptide and peptide analog or control peptide (SWM) or medium only. After a 24 hour incubation, the levels of TNF-α and IFN-γ in the supernatant are determined using commercially available EIA kits (Endogen, Cambridge, Mass.).
The ability of the peptide analog ligand to influence cytokine production was next measured. The Dr2b-restricted T cell clone 5F6 was incubated in the presence of 3 μM MBP peptide with either 10 μM of NBI-5788 (SEQ ID NO:7) or SWM or medium only. As a control, cells were cultured in the presence of medium alone. After 24 hours, supernatants were removed and the levels of tumor necrosis factor alpha (TNF-α) and interferon-y (IFN-γ) determined using commercially available EIA kits.

Series [6] has as its system rat MHC class II I-A or I-E on splenic adherent cells. Kind of series: MHC binding assay (competition with biotin-labeled MBP peptide, flow cytometry). Also on record: species or system Lewis rat. Particulars: at 100 μM. As for the experimental part:
Binding of peptides to MHC molecules may be assayed on whole cells. Briefly, Lewis rat spleen cells are cultured for 3 hours to allow adherent cells to stick to polystyrene petri dishes. Non-adherent cells are removed. Adherent cells, which contain cells expressing MHC class II molecules, are collected by scraping the dishes. The binding of peptide analogs to cells is measured by a fluorescence assay. In this assay, splenic adherent cells are mixed with different concentrations of peptide analogs and incubated for 1 hour at 37° in a CO2 incubator. Following incubation, biotinlabeled MBP (87-99) is added to the culture wells. The cells are incubated for another hour and then washed three times in medium. […] Fluorescence intensity is calculated by subtracting the fluorescence value obtained from cells stained with phycoerythrin-streptavidin alone (control staining) from the fluorescence value obtained from biotin-labeled MBP native peptide plus phycoerythrin-streptavidin (experimental staining). […] Percent inhibition is calculated for each analog and expressed as IC50 values.
The ability of MBP peptides and peptide analogs to bind MHC was measured. […] The binding of MBP (87-99) analogs was measured using a fluorescence assay. […] Percent inhibition was calculated for each analog and expressed as IC50 values.
On the technique in general: A flow cytometer gives signals particle by particle.

Series [7] relates to MS patients. To be noted: human, in vivo; cited from earlier work.

Turning to “NBI-5765: peptide analog of MBP (83-99), SEQ ID NO:6, sequence in FIG. 8 ([dA]NPVVHAFANIVTPRTP)”, the “effect on EAE disease severity versus control peptide” value in series [1] is recorded as “significantly reduced the magnitude of the disease”. Further, the “effect on first phase of EAE” value in series [2] (FIG. 12) is “reduced the level of the disease in the first phase”. In series [2] (relapse around day 70), the “effect on relapse of EAE” value is on record as “reduced the severity of the relapse”. Moreover, the “inhibition of MBP-dependent proliferation of clone 5F6” value in series [3] is recorded as “inhibited the MBP-dependent proliferation in a concentration dependent fashion”. For the same molecule, the “inhibition of MBP-dependent proliferation of clone MS-1” value in series [4] is “inhibited the MBP-dependent proliferation in a concentration dependent fashion”. Further, in series [5], the “stimulation of cytokine production over background by the analog itself” value is “None”.
For the molecule “NBI-5789: peptide analog of MBP (83-99), SEQ ID NO:8, sequence in FIG. 8 ([dA]KPVVHAFANIVTPRTP)”, in series [3], the “inhibition of MBP-dependent proliferation of clone 5F6” value is reported as “inhibited the MBP-dependent proliferation in a concentration dependent fashion”. The “stimulation of cytokine production over background by the analog itself” value in series [5] is listed as “None”.
For “a83, A89, A91: analog with residue 83 altered to D-alanine, residue 89 to alanine, and residue 91 to alanine”, the “inhibition of binding of biotin-labeled MBP peptide to MHC” value in series [6] was 25%.

B1: IFN-γ: cytokine administered in a pilot study in MS patients (protein, UniProt P01579 24-161, looked up)
Interferon gamma: QDPYVKEAENLKKYFNAGHSDVADNGTLFLGILKNWKEESDRKIMQSQIVSFYFKLFKNFKDDQSIQKSVETIKEDMNVKFFNSNKKKRDDFEKLTNYSVTDLNVQRKAIHELIQVMAELSPAAKTGKRKRSQMLFRG
As for B1, the “patients with a clinical exacerbation within one month after initiation of treatment” value in series [7] was 7 of 18.
